Laboratory results taken from patent US12391733B2, “Stapled intracellular-targeting antimicrobial peptides to treat infection” (priority 2016, dated 2025).
Where two headings read alike, the source gives them in different places. Positions of bridges follow the written chain, without caps; N, C: chain ends. Non-standard residues stand in square brackets, D forms with d. Residues, ends and D or L forms follow the SMILES beside them. R8 = C=CCCCCCC[C@@](C)(N)C(=O)O; S5 = C=CCCC[C@](C)(N)C(=O)O

Experiments:
circular dichroism = conditions: 10 mM phosphate buffer; pH 7.4; ns °C; 100 uM
E. coli = type: cell-based, Escherichia coli; conditions: for Antimicrobial Activity NIC (μg/ml) E. coli: Table 1, microbroth dilution, refined MHB, 20-24 hours at 37° C.
Method: (§1) Antimicrobial Activity Assay The following microbroth dilution protocol was adapted to determine the MIC of each peptide. First, Mueller-Hinton broth (MHB) was passed through an anion exchange column to remove polyanionic species and generate refined MHB. This refined broth was then used in the standard microbroth dilution protocol devised by Hancock et al. for 96 well plates. […] Briefly, bacterial cells were grown overnight in refined MHB at 37° C. and then diluted and allowed to grow again for several hours. Serial dilutions of peptide stocks in water (10 μl) were prepared using clear round-bottom polypropylene 96-well plates. Then 90 μl of bacteria in refined MHB was added to give a final inoculum of 5×10^5 CFU/ml. The plates were then covered with porous tape to reduce evaporation, and incubated for 20-24 hours at 37° C.

B. cereus = type: cell-based
Method: as §1

MRSA = type: cell-based
Method: as §1

P. aeruginosa = type: cell-based
Method: as §1

S. Aureus = type: cell-based
Method: as §1

[1] = system: human red blood cells (RBCs); type: cell-based; conditions: for % Hemolysis at 50 μg/ml: red cells of human, 1 h
Text: One of the key obstacles that have long impeded the use of AMPs in systemic infections such as sepsis is their tendency to lyse human cells, such as red blood cells (RBCs). Thus, it is critical to minimize hemolytic activity as much as possible to achieve a therapeutic window. […] Of note, in those circumstances where hydrocarbon staples increase hemolytic activity due to increasing hydrophobicity, the alkene moiety can be modified, e.g., by dihydroxylation, to install hydrophilic residues and potentially mitigate hemolysis.
Hemolytic Activity Assay For the determination of hemolytic activity, the following protocol was applied: human blood samples were centrifuged to isolate red blood cells (RBCs), which were then washed and suspended in phosphate-buffered saline to yield a 1% (v/v) suspension. This suspension was then added to serial dilutions of peptide stocks in water in clear round-bottom polypropylene 96-well plates and the plates incubated for 1 hour at 37° C. After incubation, the plates were centrifuged and the supernatant isolated to determine the amount of hemoglobin released using a spectrophotometer (570 nm). The minimum hemolytic concentration (MHC) was determined by assessing the peptide concentration at which there was less than 1% hemoglobin release.

SMILES	helicity (circular dichroism)	% Hemolysis at 50 μg/ml [1]	Antimicrobial Activity NIC (μg/ml) E. coli (E. coli)	other results
CC(C)C[C@H](NC(=O)[C@H](CC(C)C)NC(=O)[C@H](CCCNC(=N)N)NC(=O)[C@H](Cc1c[nH]cn1)NC(=O)[C@@H](NC(=O)[C@H](CCCNC(=N)N)NC(=O)CNC(=O)[C@@H](NC(=O)[C@@H]1CCCN1C(=O)[C@H](Cc1c[nH]c2ccccc12)NC(=O)[C@H](CCC(N)=O)NC(=O)[C@H](CC(C)C)NC(=O)[C@]1(C)CCCC=CCCC[C@](C)(NC(=O)[C@H](CCCNC(=N)N)NC(=O)[C@@H](N)[C@@H](C)O)C(=O)N[C@@H](CO)C(=O)N[C@@H](CCCNC(=N)N)C(=O)N[C@@H](C)C(=O)N1)C(C)C)C(C)C)C(=O)N[C@@H](CCCNC(=N)N)C(=O)N[C@@H](CCCCN)C(N)=O [BFStap(i + 4)11] (H-TR[S5]SRA[S5]LQWPVGRVHRLLRK-NH2; staple 3-7)	8%	3.1%	–	Antimicrobial Activity MIC (μg/ml) E. coli (E. coli; Table 2): 6.25 µg/mL; Antimicrobial Activity MIC (μg/ml) B. cereus (B. cereus; Table 2): 25 µg/mL; Antimicrobial Activity MIC (μg/ml) MRSA (MRSA; Table 2): >50 µg/mL; Antimicrobial Activity MIC (μg/ml) P. aeruginosa (P. aeruginosa; Table 2): 12.5 µg/mL; Antimicrobial Activity MIC (μg/ml) S. Aureus (S. Aureus; Table 2): 50 µg/mL; hemolytic activity (in words) [1]: low hemolytic activity
CC(C)C[C@H](NC(=O)[C@H](CC(C)C)NC(=O)[C@H](CCCNC(=N)N)NC(=O)[C@H](Cc1c[nH]cn1)NC(=O)[C@@H](NC(=O)[C@]1(C)CCCC=CCCCCCC[C@@](C)(NC(=O)[C@H](C)NC(=O)[C@H](CCCNC(=N)N)NC(=O)[C@H](CO)NC(=O)[C@H](CO)NC(=O)[C@H](CCCNC(=N)N)NC(=O)[C@@H](N)[C@@H](C)O)C(=O)N[C@@H](CC(C)C)C(=O)N[C@@H](CCC(N)=O)C(=O)N[C@@H](Cc2c[nH]c3ccccc23)C(=O)N2CCC[C@H]2C(=O)N[C@@H](C(C)C)C(=O)NCC(=O)N1)C(C)C)C(=O)N[C@@H](CCCNC(=N)N)C(=O)N[C@@H](CCCCN)C(N)=O [BFStap(i + 7)6] (H-TRSSRA[R8]LQWPVG[S5]VHRLLRK-NH2; staple 7-14)	7.3%	9.5%	–	Antimicrobial Activity MIC (μg/ml) E. coli (E. coli): 6.25 µg/mL; Antimicrobial Activity MIC (μg/ml) B. cereus (B. cereus): 12.5 µg/mL; Antimicrobial Activity MIC (μg/ml) MRSA (MRSA): >50 µg/mL; Antimicrobial Activity MIC (μg/ml) P. aeruginosa (P. aeruginosa): 12.5 µg/mL; Antimicrobial Activity MIC (μg/ml) S. Aureus (S. Aureus): 25 µg/mL
CC(C)C[C@@H]1NC(=O)CNC(=O)[C@](C)(NC(=O)[C@H](CCCNC(=N)N)NC(=O)[C@H](CO)NC(=O)[C@H](CO)NC(=O)[C@H](CCCNC(=N)N)NC(=O)[C@@H](N)[C@@H](C)O)CCCCCCC=CCCC[C@@](C)(C(=O)N[C@@H](CCCNC(=N)N)C(=O)N[C@H](C(=O)N[C@@H](Cc2c[nH]cn2)C(=O)N[C@@H](CCCNC(=N)N)C(=O)N[C@@H](CC(C)C)C(=O)N[C@@H](CC(C)C)C(=O)N[C@@H](CCCNC(=N)N)C(=O)N[C@@H](CCCCN)C(N)=O)C(C)C)NC(=O)[C@H](C(C)C)NC(=O)[C@@H]2CCCN2C(=O)[C@H](Cc2c[nH]c3ccccc23)NC(=O)[C@H](CCC(N)=O)NC1=O [BFStap(i + 7)7] (H-TRSSR[R8]GLQWPV[S5]RVHRLLRK-NH2; staple 6-13; N-terminus and C-terminus assumed)	11.6%	3.0%	22.9 µg/mL	–
CC(C)C[C@@H]1NC(=O)CNC(=O)[C@H](C)NC(=O)[C@H](CCCNC(=N)N)NC(=O)[C@H](CO)NC(=O)[C@H](CO)NC(=O)[C@](C)(NC(=O)[C@@H](N)[C@@H](C)O)CCCCCCC=CCCC[C@@](C)(C(=O)N[C@@H](Cc2c[nH]c3ccccc23)C(=O)N2CCC[C@H]2C(=O)N[C@H](C(=O)NCC(=O)N[C@@H](CCCNC(=N)N)C(=O)N[C@H](C(=O)N[C@@H](Cc2c[nH]cn2)C(=O)N[C@@H](CCCNC(=N)N)C(=O)N[C@@H](CC(C)C)C(=O)N[C@@H](CC(C)C)C(=O)N[C@@H](CCCNC(=N)N)C(=O)N[C@@H](CCCCN)C(N)=O)C(C)C)C(C)C)NC1=O [BFStap(i + 7)9] (H-T[R8]SSRAGL[S5]WPVGRVHRLLRK-NH2; staple 2-9; N-terminus and C-terminus assumed)	0%	4.3%	41.7 µg/mL	–
CC(C)C[C@H](NC(=O)[C@H](CC(C)C)NC(=O)[C@H](CCCNC(=N)N)NC(=O)[C@H](Cc1c[nH]cn1)NC(=O)[C@@H](NC(=O)[C@H](CCCNC(=N)N)NC(=O)CNC(=O)[C@@H](NC(=O)[C@@H]1CCCN1C(=O)[C@H](Cc1c[nH]c2ccccc12)NC(=O)[C@H](CCC(N)=O)NC(=O)[C@]1(C)CCCC=CCCCCCC[C@@](C)(N)C(=O)N[C@@H](CCCNC(=N)N)C(=O)N[C@@H](CO)C(=O)N[C@@H](CO)C(=O)N[C@@H](CCCNC(=N)N)C(=O)N[C@@H](C)C(=O)NCC(=O)N1)C(C)C)C(C)C)C(=O)N[C@@H](CCCNC(=N)N)C(=O)N[C@@H](CCCCN)C(N)=O [BFStap(i + 7)10] (H-[R8]RSSRAG[S5]QWPVGRVHRLLRK-NH2; staple 1-8)	0%	2.3%	>100 µg/mL	–
